Reference: US20240210412A1, “SULFONYL-TRIAZOLE COMPOUNDS USEFUL AS LIGANDS AND INHIBITORS OF PROSTAGLANDIN REDUCTASE 2” (University of Virginia Patent Foundation, priority 2021, published 2024)
“Also recorded” adds a separate entry of the source.

Columns and labels:
PTGR2 = biological target: T1, PTGR2 (Homo sapiens, UniProt Q8N8N7); test: gel-based ABPP, HHS-475 probe, HEK293T cells expressing recombinant PTGR2; type: cell-based; conditions: live HEK293T cells, ligand 25 μM or varying, 2 h; HHS-475 100 μM
T1 construct: host or cells: HEK293T
T1 sequence (Q8N8N7 whole entry): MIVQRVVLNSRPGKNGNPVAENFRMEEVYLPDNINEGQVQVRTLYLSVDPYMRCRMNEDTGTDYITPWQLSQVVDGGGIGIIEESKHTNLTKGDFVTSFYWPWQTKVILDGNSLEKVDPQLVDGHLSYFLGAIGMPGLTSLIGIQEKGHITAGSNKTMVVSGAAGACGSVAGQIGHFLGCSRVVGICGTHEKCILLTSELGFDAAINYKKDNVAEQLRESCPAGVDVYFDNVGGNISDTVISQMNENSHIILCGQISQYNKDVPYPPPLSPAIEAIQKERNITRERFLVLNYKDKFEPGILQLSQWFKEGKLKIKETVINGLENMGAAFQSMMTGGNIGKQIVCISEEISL
Procedure: HEK293T cells at 30-50% confluency were transfected with 2.6 μg of FAH or PTGR2 plasmid DNA in a serum-free media/polyethyleneimine solution for 48 hrs. The cells were washed once with warm, sterile DPBS (1×, 5 mL), and then 10 mL of serum-free media (supplemented with 1% L-glutamine) containing either DMSO or SuTEx fragment (in DMSO) was added. After 2 hrs, the cells were treated with 100 μM of SuTEx alkyne probe (HHS-475, 10 μL of 1000× DMSO stock) and incubated for an additional 2 hrs. The media was aspirated and cells washed with cold PBS (5 mL) and harvested. Cells were spun at 500×g for 5 min at 4° C. and supernatant was removed. Pellets were resuspended in 1 mL of cold DPB S and spun at 1,400×g for 3 min at 4° C. and supernatant was removed. The cells were lysed in PBS by sonication and fractionated (100,000×g, 45 min, 4° C.). The soluble fraction was diluted to 1 mg/mL in PBS and 49 μL was used for analysis. […] The samples were analyzed by SDS-PAGE (30 μL) and imaged by in-gel fluorescence scanning.
Confirmatory studies were also performed on prostaglandin reductase 2 (PTGR2) because of its role in the reduction of the bioactive lipid, 15-keto-PGE2^[17]. […] The remaining fluorescent signal detected on PTGR2 Y100F mutant protein is likely due to probe labeling of additional tyrosine sites identified on wild-type protein.
To assess the PTGR2 inhibitory activity of AMC-0702 and AMC-0703, HEK293T cells expressing PTGR2 were pretreated with vehicle, HHS-0101 (25 μM), HHS-0701 (25 μM), AMC-0702 (25 μM-0.1 μM), or AMC-0703 (25 μM-0.1 μM) for 2 hours followed by HHS-475 probe labelling in live cells (25 μM, 2 hours). Cells were lysed and probe-modified PTGR2 in proteomes detected by copper-catalyzed azide-alkyne cycloaddition conjugation of rhodamine-azide, SDS-PAGE, and in-gel fluorescence scanning. Inhibitory activity of compounds is determined by reductions in fluorescent band intensity from HHS-475 probe labeling of proteins detected in proteomes. […]

Q8NFI4 = test: SILAC LC-MS ABPP; type: cell-based, human; conditions: 25 μM 2 h, live DM93 cells
Procedure: (§1) Cells were grown to 90-95% confluence before being washed once with warm, sterile DPBS (1×, 5 mL), followed by addition of 10 mL of serum-free media (supplemented with 1% L-glutamine) containing either DMSO or SuTEx fragment (in DMSO) was added. Light cells were treated with DMSO vehicle while the heavy cells were treated with DMSO or SuTEx fragment (in DMSO) and incubated for 2 hrs. After 2 hrs, the cells were treated with SuTEx alkyne probe (HHS475, 10 μL of 1000× DMSO stock) and incubated for an additional 2 hrs. The media was aspirated and cells washed with cold PBS (5 mL) and harvested. Cells were spun at 500×g for 5 min at 4° C. followed by removal of supernatant. Pellets were resuspended in 1 mL of cold DPBS and spun at 1,400×g for 3 min at 4° C. followed by removal of supernatant. The cells were lysed in PBS by sonication and fractionated (100,000×g, 45 min, 4° C.).The light and heavy soluble fractions were diluted to 2.3 mg/mL in PBS and 432 μL were used for analysis (1 mg total protein). The probe-modified proteomes were conjugated to desthiobiotin-PEG3-azide (10 μl of 10 mM stock in DMSO; 200 μM final concentration) using TCEP (10 μl of fresh 50 mM stock in water, 1 mM final concentration), TBTA ligand (33 μl of a 1.7 mM 4:1 t-butanol/DMSO stock, 100 μM final concentration) and CuSO4 (10 μl of 50 mM stock, 1 mM final concentration). Samples were vortexed to mix and incubated for 1 hr at room temperature. The heavy and light proteomes were mixed 1:1 and the subsequent steps, including LC-MS/MS data analysis, were performed as previously described^[8a].
(§2) Coupling cell-based screens with chemical proteomics can facilitate the identification of target protein and binding sites that engage and are irreversibly modified by covalent ligands^[12]. In these assays, covalent ligands block SuTEx activity-based probe (ABP) labeling at protein sites, and the competition of probe labeling can be used to quantify potency and selectivity across the proteome^[10a]. To facilitate quantitative chemical proteomics, DM93 melanoma cells were cultured using stable isotopic labeling by amino acids in cell culture (SILAC)^[13]. Cells cultured in “light” media were treated with dimethyl sulfoxide (DMSO) vehicle while cells cultured in “heavy” media were treated with SuTEx ligand (25 μM, 2 hours, 37° C.). Next, cells were treated with HHS-475 probe (100 μM, 2 hours, 37° C.) followed by lysis and processing of proteomes for analysis. Probe-modified proteins from the soluble fraction were conjugated to a desthiobiotin-azide tag by copper-catalyzed azide-alkyne cycloaddition (CuAAC)^[14] followed by mixing of the light and heavy proteomes. The combined proteomes were digested with trypsin protease to produce probe-modified peptides, followed by enrichment and purification by avidin affinity chromatography. Probe-modified peptides were resolved, identified, and quantified by high-resolution liquid chromatography-tandem mass spectrometry (LC-MS/MS). Resultant data were analyzed as previously described^[8a, 10a]. Table 2, below, lists sites of modification targeted by sulfonyl-triazole compounds HHS-0101, HHS-0201, HHS-0301, HHS-0401, and HHS-0701. The format of the table is as follows: protein Uniprot accession number (see uniprot.org); tyrosine site (amino acid position) modified; treatment (sulfonyl-triazole compound identification number, followed by Y (where if multiple compounds modify the same site, the compounds are separated by vertical lines).

O15523 = test: SILAC LC-MS ABPP; type: cell-based, human; conditions: 25 μM 2 h, live DM93 cells
Procedure: as §1, §2

Q8N0Y7 = test: SILAC LC-MS ABPP; type: cell-based, human; conditions: 25 μM 2 h, live DM93 cells
Procedure: as §1, §2

A6NKT7 = test: SILAC LC-MS ABPP; type: cell-based, human; conditions: 25 μM 2 h, live DM93 cells
Procedure: as §1, §2

Q6IS14 = test: SILAC LC-MS ABPP; type: cell-based, human; conditions: 25 μM 2 h, live DM93 cells
Procedure: as §1, §2

O=C(c1ccc(S(=O)(=O)n2cncn2)cc1)N1CCC(c2ccccc2)CC1 [HHS-0701, (4-((1H-1,2,4-triazol-1-yl)sulfonyl)phenyl)(4-phenylpiperidin-1-yl)methanone]
blockade of HHS-475 labeling of PTGR2 (PTGR2): could block HHS-475 labeling of PTGR2; also recorded: concentration-dependent blockade of probe labeling

O=C(NCC1CC1)c1ccc(S(=O)(=O)n2cncn2)cc1 [HHS-0201, 4-((1H-1,2,4-triazol-1-yl)sulfonyl)-N-(cyclopropylmethyl)benzamide]
liganded tyrosine site 213 (Q8NFI4): HHS0201.Y (tyrosine sites that showed >80% reductions (SR >5) in probe labeling in cells treated with compounds (liganded sites))

O=C(NCc1ccccc1)c1ccc(S(=O)(=O)n2cncn2)cc1 [HHS-0401, 4-((1H-1,2,4-triazol-1-yl)sulfonyl)-N-benzylbenzamide]
liganded tyrosine site 264 (O15523): HHS0401.Y (tyrosine sites that showed >80% reductions (SR >5) in probe labeling in cells treated with compounds (liganded sites))
liganded tyrosine site 119 (Q8N0Y7): HHS0401.Y (tyrosine sites that showed >80% reductions (SR >5) in probe labeling in cells treated with compounds (liganded sites))

O=C(NC1CC1)c1ccc(S(=O)(=O)n2cncn2)cc1 [HHS-0101, 4-((1H-1,2,4-triazol-1-yl)sulfonyl)-N-cyclopropylbenzamide]
blockade of HHS-475 labeling of PTGR2 (PTGR2): not
liganded tyrosine site 1008 (A6NKT7): HHS0101.Y (tyrosine sites that showed >80% reductions (SR >5) in probe labeling in cells treated with compounds (liganded sites))
liganded tyrosine site 127 (Q6IS14): HHS0101.Y|HHS0201.Y|HHS0701.Y (tyrosine sites that showed >80% reductions (SR >5) in probe labeling in cells treated with compounds (liganded sites))
